Laboratory results: patent US20240209028A1, “CNP COMPOUNDS” (priority 2022, published 2024)
Starred links: 1 amine or outer side, 2 acyl side, 3 side chain; linkers in the order of their positions; H or OH if unused. Positions of bridges follow the written chain, without caps; N, C: chain ends. Residues, ends and D or L forms follow the SMILES beside them. *: point of attachment. C18 diacid = O=C(O)CCCCCCCCCCCCCCCCC(=O)*; γGlu = O=C(O)[C@H](CCC(=O)[*:2])N[*:1]

Experiment: Telemetry measurement of heart rate and blood pressure in awake rats
Assay type: in vivo, Sprague Dawley rat
Settings: for Heart rate: 30 min, P (vs vehicle) / Heart rate: 12 h, P (vs vehicle) / Mean arterial pressure: 30 min, P (vs vehicle) / Mean arterial pressure: 12 h, P (vs vehicle): paired t test; for Heart rate: 12 h, Mean (bpm) / Mean arterial pressure: 12 h, Mean (mmHg) / Heart rate: 30 min, Mean (bpm) / Mean arterial pressure: 30 min, Mean (mmHg): awake rats; for Heart rate: 12 h, Mean (bpm) / Mean arterial pressure: 12 h, Mean (mmHg): average of first 12 h; for Heart rate: 30 min, Mean (bpm) / Mean arterial pressure: 30 min, Mean (mmHg): first 30 min; for increase in HR: P<0.05
Procedure: The purpose of the study was to investigate the effect of acute dosing with the CNP compound 9482 (Chem. 137) on mean blood pressure (MAP) and heart rate (HR) in awake rats.
Procedure: The transducers are implanted in Sprague Dawley rats (Charles River) and the rats are allowed a 2-3-week period for recovery. Before surgery, the devices are registered in the software by placing them on a receiver plate and powered on. Sterile saline is added to the transducer catheter before surgery start, and the transmitter is then powered on. The transmitters are placed in the abdomen with the sensor in aorta abdominalis. Isoflurane is used as anaesthetic, and during and after surgery, the rats receive Temgesic (0.05 mg/kg s.c.), Norodyl (5 mg/kg s.c.), and Baytril (10 mg/kg s.c.) as pain relief and to prevent bacterial infection.
Study design: Rats are housed 2/cage (1 with device and 1 as social partner). All animals will have free access to water and food (altromin) throughout the entire study. The rats will be housed in light cycles with light from 6 AM to 6 PM and dark from 6 PM to 6 AM. Eight rats are divided into 2 groups according to a crossover study design.
Telemetry: Each rat is equipped with a transducer (HD-S10 from DSI) capable of measuring blood pressure, heart rate, and activity using Ponemah software with a 100 Hz frequency. During measurements, there should be no disturbances in the room that the rats are housed in to minimize variability in the data. A 4-hour baseline recording will be taken prior to start of the study to capture mean arterial pressure (MAP) and heart rate (HR) patterns in untreated, undisturbed rats. The recording period after drug administration was 24 hours.
Dosing scheme: Rats are dosed in a crossover study design with 4 rats in each group. Each rat is given a washout period of 1 week prior to the next dosing event. Dosing will be intravenous (IV) in the tail vein. Dosing of 9482 was tested in 30, 100, and 300 nmol/kg i.v. in separate experiments. The vehicle consists of 8 mM phosphate, 250 mM glycerol, pH 7.4.
Data analysis and statistics was conducted in Ponemah software and Graphpad prism. For statistics, a paired t test was applied with a confidence level of 95% and P<0.05 denoting statistical significance.

[1] = first 30 min after dosing, 30, 100, or 300 nmol/kg i.v.

In the case of CC[C@H](C)[C@@H]1NC(=O)[C@H](CCCNC(=N)N)NC(=O)[C@H](CC(=O)O)NC(=O)[C@H](CC(C)C)NC(=O)[C@@H]2CCCN2C(=O)[C@H](CC(C)C)NC(=O)CNC(=O)[C@H](Cc2ccccc2)NC(=O)[C@@H](NC(=O)CNC(=O)[C@H](CO)NC(=O)[C@H](CO)NC(=O)[C@H](CC(C)C)NC(=O)CNC(=O)[C@H](CCCCN)NC(=O)[C@H](CCCCN)NC(=O)[C@H](CCC(N)=O)NC(=O)[C@H](C)NC(=O)CNC(=O)[C@H](CCCCN)NC(=O)[C@H](Cc2ccc(O)cc2)NC(=O)[C@H](CCCCN)NC(=O)[C@H](CCCNC(=N)N)NC(=O)[C@H](C)NC(=O)[C@H](CCC(N)=O)NC(=O)[C@@H]2CCCN2C(=O)[C@H](Cc2c[nH]cn2)NC(=O)[C@H](CCC(=O)O)NC(=O)[C@H](CCC(N)=O)NC(=O)CC[C@H](NC(=O)CC[C@H](NC(=O)CC[C@H](NC(=O)CC[C@H](NC(=O)CC[C@H](NC(=O)CCCCCCCCCCCCCCCCC(=O)O)C(=O)O)C(=O)O)C(=O)O)C(=O)O)C(=O)O)CSSC[C@@H](C(=O)O)NC(=O)CNC(=O)[C@H](CC(C)C)NC(=O)CNC(=O)[C@H](CO)NC(=O)[C@H](CC(C)C)NC(=O)[C@H](CO)NC(=O)CNC1=O [compound 9482] ({C18 diacid-γGlu-γGlu-γGlu-γGlu-γGlu}-QEHPQARKYKGAQKKGLSSGCFGLPLDRIGSLSGLGC-OH; disulfide 21-37), the “Heart rate: 30 min, P (vs vehicle)” value (30 nmol/kg i.v.) is reported as “ns”, the “Heart rate: 12 h, P (vs vehicle)” value (30 nmol/kg i.v.) is reported as “ns” and the “Mean arterial pressure: 30 min, P (vs vehicle)” value (30 nmol/kg i.v.) is reported as “ns”. For the same compound, the “Mean arterial pressure: 12 h, P (vs vehicle)” value (30 nmol/kg i.v.) was “ns”, the “Heart rate: 30 min, P (vs vehicle)” value (100 nmol/kg i.v.) was “ns” and the “Heart rate: 12 h, P (vs vehicle)” value (100 nmol/kg i.v.) was 0.04. For the same compound, the “Mean arterial pressure: 30 min, P (vs vehicle)” value (100 nmol/kg i.v.) was “ns”, the “Mean arterial pressure: 12 h, P (vs vehicle)” value (100 nmol/kg i.v.) was “ns” and the “Heart rate: 30 min, P (vs vehicle)” value (300 nmol/kg i.v.) was “ns”. For the same compound, the “Heart rate: 12 h, P (vs vehicle)” value (300 nmol/kg i.v.) was 0.03, the “Mean arterial pressure: 30 min, P (vs vehicle)” value (300 nmol/kg i.v.) was “ns” and the “Mean arterial pressure: 12 h, P (vs vehicle)” value (300 nmol/kg i.v.) was “ns”. The “MAP compared to vehicle” value (average of the first 12 h, three tested doses i.v.) was “no differences”, the “Heart rate: 12 h, Mean (bpm)” value (30 nmol/kg i.v.) was 332 bpm and the “Mean arterial pressure: 12 h, Mean (mmHg)” value (30 nmol/kg i.v.) was 106 mmHg. The “Heart rate: 30 min, Mean (bpm)” value (30 nmol/kg i.v.) was 356 bpm, the “Mean arterial pressure: 30 min, Mean (mmHg)” value (30 nmol/kg i.v.) was 116 mmHg and the “Heart rate: 12 h, Mean (bpm)” value (100 nmol/kg i.v.) was 364 bpm. The “Mean arterial pressure: 12 h, Mean (mmHg)” value (100 nmol/kg i.v.) was 104 mmHg, the “Heart rate: 30 min, Mean (bpm)” value (100 nmol/kg i.v.) was 388 bpm and the “Mean arterial pressure: 30 min, Mean (mmHg)” value (100 nmol/kg i.v.) was 114 mmHg. For the same compound, the “Heart rate: 12 h, Mean (bpm)” value (300 nmol/kg i.v.) was 355 bpm, the “Mean arterial pressure: 12 h, Mean (mmHg)” value (300 nmol/kg i.v.) was 102 mmHg and the “Heart rate: 30 min, Mean (bpm)” value (300 nmol/kg i.v.) was 370 bpm. The “Mean arterial pressure: 30 min, Mean (mmHg)” value (300 nmol/kg i.v.) was 111 mmHg, the “HR compared to vehicle” value [1] was “no difference” and the “MAP compared to vehicle” value [1] was “no difference”. The “change in HR” value (first 12 h, 30 nmol/kg i.v.) was “No change”, the “increase in HR” value (first 12 h, 100 nmol/kg i.v.) was 8.8±10.1% and the “increase in HR” value (first 12 h, 300 nmol/kg i.v.) was 6.4±6.6%.
